Tested on: HCV RNA dependent RNA polymerase
Test: HCV replicon assay (luciferase, Huh-lucubineo-ET cells)
Type: cell-based
Settings: Hepatitis C virus; tested at 25 μM; ET (Huh-lucubineo-ET) replicon cell line; luciferase activity measured 48-72 hours after compound addition; relative to no compound control
Description: A cell line, ET (Huh-lucubineo-ET) was used for screening of compounds for inhibiting HCV RNA dependent RNA polymerase. The ET cell line was stably transfected with RNA transcripts harboring a I389luc-ubi-neo/NS3-3′/ET; replicon with firefly luciferase-ubiquitin-neomycin phosphotransferase fusion protein and EMCV-IRES driven NS3-5B polyprotein containing the cell culture adaptive mutations (E1202G; T1280I; K1846T) (Krieger at al, 2001 and unpublished). The ET cells were grown in DMEM (Dulbeco's Modified Eagle's Medium), supplemented with 10% fetal calf serum, 2 mM Glutamine, Penicillin (100 IU/mL)/Streptomycin (100 μg/mL), 1× nonessential amino acids, and 250 μg/mL G418 (“Geneticin”). Reagents are all available through Life Technologies (Bethesda, Md.). The cells were plated at 0.5−1.0×10^4 cells/well in the 96 well plates and incubated for 24 hrs before adding test compound. The compounds were added to the cells to achieve a final concentration of 0.1 nM to 50 μM and a final DMSO (dimethylsulfoxide) concentration of 0.5%. Luciferase activity was measured 48-72 hours later by adding a lysis buffer and the substrate (Catalog number Glo-lysis buffer E2661 and Bright-Glo luciferase system E2620 Promega, Madison, Wis.). Cells should not be too confluent during the assay. Percent inhibition of replication data is plotted relative to no compound control. Under the same condition, cytotoxicity of the compounds were determined using cell proliferation reagent, WST-1 (Roche, Germany). The compounds showing antiviral activities, but no significant cytotoxicities were chosen to determine EC50 and TC50 the effective concentration and toxic concentration at which 50% of the maximum inhibition is observed. For these determinations, a 10 point, 2-fold serial dilution for each compound was used, which spans a concentration range of 1000 fold. EC50 and similarly TC50 values were calculated by fitting % inhibition at each concentration to the following equation: % inhibition=100%/[(EC50/[I])b+1] where b is Hill's coefficient.

Compound	inhibition at 25 µM
O=C(O)c1ccc2c(C3CCCCC3)c3n(c2c1)CCCn1c-3nc2ccccc21 [Compound 225]	7%
O=C(O)c1ccc2c(C3CCCCC3)c3n(c2c1)CCCCn1c-3nc2ccccc21 [Compound 226]	23%
O=C(O)c1ccc2c(C3CCCCC3)c3n(c2c1)CCCn1c-3cc2ccccc21 [Compound 227]	94%
O=C(O)c1ccc2c(C3CCCCC3)c3n(c2c1)CCCCn1c-3cc2ccccc21 [Compound 228]	97%
O=C(O)c1ccc2c(C3CCCCC3)c3n(c2c1)CCCCCn1c-3cc2ccccc21 [Compound 229]	86%
O=C(O)c1ccc2c(C3CCCCC3)c3n(c2c1)CCCCn1c-3cc2c(OCc3ccccc3)cccc21 [Compound 230]	75%
O=C(O)c1ccc2c(C3CCCCC3)c3n(c2c1)CCCCn1c-3cc2cc(OCc3ccccc3)ccc21 [Compound 231]	96%
O=C(O)c1ccc2c(C3CCCCC3)c3n(c2c1)CCCCn1c-3cc2ccc(OCc3ccccc3)cc21 [Compound 232]	91%
COc1ccc2c(c1)cc1n2CCCCn2c-1c(C1CCCCC1)c1ccc(C(=O)O)cc12 [Compound 233]	96%
O=C(O)c1ccc2c(C3CCCCC3)c3n(c2c1)CCCCn1c-3cc2cc(O)ccc21 [Compound 234]	99%
COc1ccc2cc3n(c2c1)CCCCn1c-3c(C2CCCCC2)c2ccc(C(=O)O)cc21 [Compound 235]	99%
O=C(O)c1ccc2c(C3CCCCC3)c3n(c2c1)CCCCn1c-3cc2ccc(O)cc21 [Compound 236]	100%
Cc1nc(C)c(-c2ccc3c4c(ccc3n2)-c2c(C3CCCCC3)c3ccc(C(=O)O)cc3n2CC(=O)N4)s1 [Compound 237]	100%

Source: patent US20080045498A1, “[…] INHIBITORS” (Genelabs Technologies, Inc., priority 2006, published 2008)
